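Interpolation was linear, between the two tested concentrations surrounding the appropriate level; five concentrations were tested over 48 hours in 96-well plates. TGI denotes the concentration required for complete inhibition of growth.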
Tests used:
Assay in all cases: NCI-60 cell line screen, 48 h
[1] = test system: SF-268 CNS
[2] = test system: SNB-19 CNS
[3] = test system: HCC-2998 colon
[4] = test system: NCI-H460 lung
[5] = test system: RXF 393 renal
[6] = test system: 786-0 renal
[7] = test system: A549 NSCLC
[8] = test system: M19-MEL melanoma
[9] = test system: UACC-62 melanoma
[10] = test system: SK-OV-3 ovarian
[11] = test system: SR leukemia
[12] = test system: UACC-257 melanoma
[13] = test system: NCI-H522 lung
[14] = test system: OVCAR-3 ovarian
[15] = test system: EKVX NSCLC
[16] = test system: OVCAR-4 ovarian
[17] = test system: DMS 273 small cell lung
[18] = test system: MALME-3M melanoma
[19] = test system: SK-MEL-28 melanoma
[20] = test system: DMS 114 small cell lung
[21] = test system: K-562 leukemia
[22] = test system: SW-620 colon
[23] = test system: OVCAR-8 ovarian
[24] = test system: LXFL 529 NSCLC
[25] = test system: SN12C renal
[26] = test system: CCRF-CEM leukemia
[27] = test system: RPMI-8226 leukemia
[28] = test system: ACHN renal
[29] = test system: DLD-1 colon
[30] = test system: TK-10 renal
[31] = test system: NCI-H226 lung
[32] = test system: NCI-H23 lung
[33] = test system: HCT-116 colon
[34] = test system: HOP-92 NSCLC
[35] = test system: IGROV1 ovarian
[36] = test system: HOP-62 NSCLC
[37] = test system: HT29 colon
[38] = test system: SF-539 CNS
[39] = test system: KM20L2 colon
[40] = test system: SNB-75 CNS
[41] = test system: COLO 205 colon
[42] = test system: M14 melanoma
[43] = test system: UO-31 renal
[44] = test system: MOLT-4 leukemia
[45] = test system: OVCAR-5 ovarian
[46] = test system: U251 CNS
[47] = test system: LOX IMVI melanoma
[48] = test system: A498 renal
[49] = test system: XF 498 CNS
[50] = test system: HCT-15 colon
[51] = test system: HL-60(TB) leukemia
[52] = test system: SF-295 CNS
[53] = test system: SK-MEL-2 melanoma
[54] = test system: SNB-78 CNS
[55] = test system: SK-MEL-5 melanoma
[56] = test system: HOP-18 NSCLC
[57] = test system: KM12 colon
[58] = test system: CAKI-1 renal

O=S1(=O)OCCOS(=O)(=O)C1(Br)Cc1ccccc1
TGI [1]: > 100 µM | TGI [2]: > 100 µM | TGI [3]: > 100 µM | TGI [4]: > 100 µM | TGI [5]: > 100 µM | TGI [6]: > 100 µM | TGI [7]: > 100 µM | TGI [8]: > 100 µM | TGI [9]: > 100 µM | TGI [10]: > 100 µM | TGI [11]: > 100 µM | TGI [12]: > 100 µM | TGI [13]: > 100 µM | TGI [14]: > 100 µM | TGI [15]: > 100 µM | TGI [16]: > 100 µM | TGI [17]: > 100 µM | TGI [18]: > 100 µM | TGI [19]: > 100 µM | TGI [20]: > 100 µM | TGI [21]: > 100 µM | TGI [22]: > 100 µM | TGI [23]: > 100 µM | TGI [24]: > 100 µM | TGI [25]: > 100 µM | TGI [26]: > 100 µM | TGI [27]: > 100 µM | TGI [28]: > 100 µM | TGI [29]: > 100 µM | TGI [30]: > 100 µM | TGI [31]: > 100 µM | TGI [32]: > 100 µM | TGI [33]: > 100 µM | TGI [34]: > 100 µM | TGI [35]: > 100 µM | TGI [36]: > 100 µM | TGI [37]: > 100 µM | TGI [38]: > 100 µM | TGI [39]: > 100 µM | TGI [40]: > 100 µM | TGI [41]: > 100 µM | TGI [42]: > 100 µM | TGI [43]: > 100 µM | TGI [44]: > 100 µM | TGI [45]: > 100 µM | TGI [46]: > 100 µM | TGI [47]: > 100 µM | TGI [48]: > 100 µM | TGI [49]: > 100 µM | TGI [50]: > 100 µM | TGI [51]: > 100 µM | TGI [52]: > 100 µM | TGI [53]: > 100 µM | TGI [54]: > 100 µM | TGI [55]: > 100 µM

CC1CCC2(OCCO2)[C@]2(C)CC(O)C(=O)C=C12 (some centres undefined)
TGI [1]: > 100 µM | TGI [2]: > 100 µM | TGI [3]: > 100 µM | TGI [4]: > 100 µM | TGI [5]: > 100 µM | TGI [6]: > 100 µM | TGI [7]: > 100 µM | TGI [8]: > 100 µM | TGI [10]: > 100 µM | TGI [11]: > 100 µM | TGI [12]: > 100 µM | TGI [56]: > 100 µM | TGI [13]: > 100 µM | TGI [14]: > 100 µM | TGI [15]: > 100 µM | TGI [17]: > 100 µM | TGI [18]: > 100 µM | TGI [19]: > 100 µM | TGI [20]: > 100 µM | TGI [21]: > 100 µM | TGI [22]: > 100 µM | TGI [23]: > 100 µM | TGI [24]: > 100 µM | TGI [25]: > 100 µM | TGI [26]: > 100 µM | TGI [27]: > 100 µM | TGI [28]: > 100 µM | TGI [29]: > 100 µM | TGI [30]: > 100 µM | TGI [31]: > 100 µM | TGI [32]: > 100 µM | TGI [34]: > 100 µM | TGI [35]: > 100 µM | TGI [37]: > 100 µM | TGI [38]: > 100 µM | TGI [57]: > 100 µM | TGI [41]: > 100 µM | TGI [42]: > 100 µM | TGI [43]: > 100 µM | TGI [44]: > 100 µM | TGI [45]: > 100 µM | TGI [46]: > 100 µM | TGI [49]: > 100 µM | TGI [50]: > 100 µM | TGI [51]: > 100 µM | TGI [52]: > 100 µM | TGI [53]: > 100 µM | TGI [55]: > 100 µM

COC(=O)/C(=N\NC(=O)c1ccccc1O)C(C#N)c1ccccc1 (centres undefined)
TGI [1]: > 50 µM | TGI [2]: > 50 µM | TGI [3]: > 50 µM | TGI [4]: > 50 µM | TGI [5]: 34.1 µM | TGI [6]: > 50 µM | TGI [7]: > 50 µM | TGI [8]: > 50 µM | TGI [9]: > 32.8 µM | TGI [58]: > 50 µM | TGI [10]: > 50 µM | TGI [12]: > 50 µM | TGI [13]: > 50 µM | TGI [14]: > 40.6 µM | TGI [15]: > 48.4 µM | TGI [16]: > 50 µM | TGI [17]: > 50 µM | TGI [18]: > 50 µM | TGI [19]: > 50 µM | TGI [20]: > 50 µM | TGI [21]: > 50 µM | TGI [22]: > 50 µM | TGI [23]: > 50 µM | TGI [24]: > 50 µM | TGI [25]: > 50 µM | TGI [26]: > 50 µM | TGI [27]: > 50 µM | TGI [28]: > 50 µM | TGI [29]: > 50 µM | TGI [30]: > 50 µM | TGI [31]: 46.1 µM | TGI [32]: > 40.7 µM | TGI [33]: > 50 µM | TGI [34]: > 50 µM | TGI [35]: > 50 µM | TGI [36]: > 50 µM | TGI [37]: > 50 µM | TGI [38]: > 43.3 µM | TGI [39]: > 50 µM | TGI [40]: > 50 µM | TGI [57]: > 50 µM | TGI [41]: > 50 µM | TGI [42]: > 50 µM | TGI [43]: 37.6 µM | TGI [44]: > 50 µM | TGI [45]: > 50 µM | TGI [46]: > 50 µM | TGI [47]: > 50 µM | TGI [48]: > 48.4 µM | TGI [49]: > 50 µM | TGI [50]: > 50 µM | TGI [51]: > 50 µM | TGI [52]: > 50 µM | TGI [53]: > 50 µM | TGI [54]: > 50 µM | TGI [55]: > 50 µM

From PubChem BioAssay (NCI)
